The source made the active and inactive calls.
Key:
[1] = biological target: T1, Sentrin-specific protease 7 (Homo sapiens, UniProt Q9BQF6); format: functional;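 further: Luminescence-based dose-response confirmation of ultra-high-throughput screening hits, measuring inhibition of SENP7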
T1 sequence (Q9BQF6 whole entry): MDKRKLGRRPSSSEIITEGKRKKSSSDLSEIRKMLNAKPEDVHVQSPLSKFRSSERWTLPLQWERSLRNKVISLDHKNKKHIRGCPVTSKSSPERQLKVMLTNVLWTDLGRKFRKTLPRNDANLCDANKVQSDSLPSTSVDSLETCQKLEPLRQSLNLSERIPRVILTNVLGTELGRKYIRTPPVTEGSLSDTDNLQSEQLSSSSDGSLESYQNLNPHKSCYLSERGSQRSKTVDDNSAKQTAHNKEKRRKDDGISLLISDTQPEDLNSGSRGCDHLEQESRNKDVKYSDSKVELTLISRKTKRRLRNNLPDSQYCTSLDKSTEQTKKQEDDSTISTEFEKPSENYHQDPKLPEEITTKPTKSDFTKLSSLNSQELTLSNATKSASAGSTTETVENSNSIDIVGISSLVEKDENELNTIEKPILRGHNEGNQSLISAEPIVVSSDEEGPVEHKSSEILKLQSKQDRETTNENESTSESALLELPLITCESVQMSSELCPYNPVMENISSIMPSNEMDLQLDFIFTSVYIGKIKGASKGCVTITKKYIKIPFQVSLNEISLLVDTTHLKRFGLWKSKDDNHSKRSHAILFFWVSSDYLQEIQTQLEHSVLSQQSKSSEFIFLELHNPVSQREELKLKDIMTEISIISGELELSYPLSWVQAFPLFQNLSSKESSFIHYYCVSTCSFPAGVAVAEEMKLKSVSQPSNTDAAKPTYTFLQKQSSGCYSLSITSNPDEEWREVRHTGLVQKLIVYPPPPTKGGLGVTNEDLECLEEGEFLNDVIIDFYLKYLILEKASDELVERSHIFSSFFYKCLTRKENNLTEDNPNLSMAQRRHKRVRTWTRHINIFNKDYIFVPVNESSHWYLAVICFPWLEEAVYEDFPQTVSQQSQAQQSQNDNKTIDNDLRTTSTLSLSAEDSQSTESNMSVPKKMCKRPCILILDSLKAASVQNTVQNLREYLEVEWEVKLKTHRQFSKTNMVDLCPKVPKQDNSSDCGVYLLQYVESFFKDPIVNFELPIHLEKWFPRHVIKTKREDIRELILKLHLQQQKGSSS

[2] = biological target: T2, Sentrin-specific protease 6 (Homo sapiens, UniProt Q9GZR1); format: functional;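 further: Luminescence-based dose-response confirmatory assay of SENP6 inhibition, following up an ultra-high-throughput screen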
T2 sequence (Q9GZR1 whole entry): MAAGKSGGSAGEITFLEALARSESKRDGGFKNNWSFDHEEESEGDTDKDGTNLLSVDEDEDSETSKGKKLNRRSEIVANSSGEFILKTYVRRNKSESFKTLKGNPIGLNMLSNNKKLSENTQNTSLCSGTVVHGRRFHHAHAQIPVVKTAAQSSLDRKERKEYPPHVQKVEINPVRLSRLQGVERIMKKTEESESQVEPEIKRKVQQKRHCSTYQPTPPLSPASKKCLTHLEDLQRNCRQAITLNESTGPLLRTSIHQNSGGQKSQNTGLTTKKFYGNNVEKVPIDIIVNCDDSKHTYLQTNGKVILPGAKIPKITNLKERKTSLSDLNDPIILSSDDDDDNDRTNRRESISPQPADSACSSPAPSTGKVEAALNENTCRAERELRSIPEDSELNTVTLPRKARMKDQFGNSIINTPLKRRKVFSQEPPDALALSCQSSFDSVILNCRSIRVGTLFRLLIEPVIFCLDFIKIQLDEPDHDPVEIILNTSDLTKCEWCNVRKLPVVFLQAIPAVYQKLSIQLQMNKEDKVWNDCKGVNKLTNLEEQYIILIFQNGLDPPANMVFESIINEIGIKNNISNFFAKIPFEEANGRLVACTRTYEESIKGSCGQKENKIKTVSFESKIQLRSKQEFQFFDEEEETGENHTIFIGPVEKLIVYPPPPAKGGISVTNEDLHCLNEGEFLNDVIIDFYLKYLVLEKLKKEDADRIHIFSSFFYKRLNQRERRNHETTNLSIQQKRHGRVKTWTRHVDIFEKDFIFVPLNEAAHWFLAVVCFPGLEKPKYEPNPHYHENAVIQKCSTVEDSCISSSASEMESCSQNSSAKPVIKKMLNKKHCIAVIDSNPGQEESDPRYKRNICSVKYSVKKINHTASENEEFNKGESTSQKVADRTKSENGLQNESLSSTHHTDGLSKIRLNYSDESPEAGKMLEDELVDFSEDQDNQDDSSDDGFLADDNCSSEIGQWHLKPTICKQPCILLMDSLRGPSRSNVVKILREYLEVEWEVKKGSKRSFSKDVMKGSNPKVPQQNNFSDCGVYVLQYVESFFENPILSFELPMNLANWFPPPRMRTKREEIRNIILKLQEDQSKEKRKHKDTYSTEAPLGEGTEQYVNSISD

Caspase-3 = biological target: T3, Caspase-3 (Homo sapiens, UniProt P42574); format: functional;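 further: Dose-response selectivity test against caspase-3 for candidate inhibitors of sentrin-specific proteases (SENPs)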
T3 sequence (P42574 whole entry): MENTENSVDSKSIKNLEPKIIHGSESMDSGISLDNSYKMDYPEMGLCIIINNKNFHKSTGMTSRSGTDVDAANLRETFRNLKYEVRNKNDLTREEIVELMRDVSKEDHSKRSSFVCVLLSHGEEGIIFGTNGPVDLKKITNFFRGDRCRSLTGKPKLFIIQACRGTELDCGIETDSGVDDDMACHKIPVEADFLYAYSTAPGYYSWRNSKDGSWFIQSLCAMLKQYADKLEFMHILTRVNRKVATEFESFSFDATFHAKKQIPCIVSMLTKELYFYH

[3] = biological target: T4, Sentrin-specific protease 8 (Homo sapiens, UniProt Q96LD8); format: functional;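 further: luminescence read-out of SENP8 inhibition, dose-response confirmation following an ultra-high-throughput screen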
T4 sequence (Q96LD8 whole entry): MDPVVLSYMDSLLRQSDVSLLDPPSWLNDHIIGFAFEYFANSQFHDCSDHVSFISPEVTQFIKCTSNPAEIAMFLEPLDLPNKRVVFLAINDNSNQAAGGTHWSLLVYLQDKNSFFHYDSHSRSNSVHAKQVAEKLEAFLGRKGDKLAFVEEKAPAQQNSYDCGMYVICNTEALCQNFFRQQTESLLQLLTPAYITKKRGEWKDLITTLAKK

[4] = biological target: Peroxisome proliferator-activated receptor gamma/Nuclear receptor coactivator 1 (Homo sapiens, UniProt P37231); assay: TR-FRET dose response biochemical High Throughput Screening assay for agonists of the steroid receptor coactivator 1 (SRC-1) recruitment by the peroxisome proliferator-activated receptor gamma (PPAR gamma): non-selective agonists. [Related pubchem assays (depositor defined):AID1300, AID1808, AID504735, AID631]; format: protein assay
[5] = biological target: Peroxisome proliferator-activated receptor gamma/Nuclear receptor coactivator 3 (Homo sapiens, UniProt P37231); assay: TR-FRET dose response biochemical High Throughput Screening assay for agonists of the steroid receptor coactivator 3 (SRC-3) recruitment by the peroxisome proliferator-activated receptor gamma (PPAR gamma): non-selective agonists. [Related pubchem assays: 1301 (Confirmation screen.), 1048 (Primary screen.)]; format: functional
Peroxisome proliferator-activated receptor gamma/Nuclear receptor coactivator 3, sequence (P37231 whole entry): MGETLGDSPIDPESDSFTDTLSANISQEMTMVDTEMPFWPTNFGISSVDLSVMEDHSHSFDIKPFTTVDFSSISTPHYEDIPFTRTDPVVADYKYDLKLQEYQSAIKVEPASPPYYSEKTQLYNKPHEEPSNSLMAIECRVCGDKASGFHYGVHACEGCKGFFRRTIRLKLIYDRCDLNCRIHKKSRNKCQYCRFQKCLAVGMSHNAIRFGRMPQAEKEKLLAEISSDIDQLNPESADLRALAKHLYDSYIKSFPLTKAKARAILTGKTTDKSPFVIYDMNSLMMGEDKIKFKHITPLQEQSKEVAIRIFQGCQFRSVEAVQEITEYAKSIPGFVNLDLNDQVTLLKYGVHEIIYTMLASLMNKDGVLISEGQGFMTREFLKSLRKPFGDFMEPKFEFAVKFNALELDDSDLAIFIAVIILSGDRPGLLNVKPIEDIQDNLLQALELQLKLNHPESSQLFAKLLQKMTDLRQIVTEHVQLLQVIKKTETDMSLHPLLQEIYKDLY
Peroxisome proliferator-activated receptor gamma/Nuclear receptor coactivator 3, sequence (Q9Y6Q9 whole entry, further chain): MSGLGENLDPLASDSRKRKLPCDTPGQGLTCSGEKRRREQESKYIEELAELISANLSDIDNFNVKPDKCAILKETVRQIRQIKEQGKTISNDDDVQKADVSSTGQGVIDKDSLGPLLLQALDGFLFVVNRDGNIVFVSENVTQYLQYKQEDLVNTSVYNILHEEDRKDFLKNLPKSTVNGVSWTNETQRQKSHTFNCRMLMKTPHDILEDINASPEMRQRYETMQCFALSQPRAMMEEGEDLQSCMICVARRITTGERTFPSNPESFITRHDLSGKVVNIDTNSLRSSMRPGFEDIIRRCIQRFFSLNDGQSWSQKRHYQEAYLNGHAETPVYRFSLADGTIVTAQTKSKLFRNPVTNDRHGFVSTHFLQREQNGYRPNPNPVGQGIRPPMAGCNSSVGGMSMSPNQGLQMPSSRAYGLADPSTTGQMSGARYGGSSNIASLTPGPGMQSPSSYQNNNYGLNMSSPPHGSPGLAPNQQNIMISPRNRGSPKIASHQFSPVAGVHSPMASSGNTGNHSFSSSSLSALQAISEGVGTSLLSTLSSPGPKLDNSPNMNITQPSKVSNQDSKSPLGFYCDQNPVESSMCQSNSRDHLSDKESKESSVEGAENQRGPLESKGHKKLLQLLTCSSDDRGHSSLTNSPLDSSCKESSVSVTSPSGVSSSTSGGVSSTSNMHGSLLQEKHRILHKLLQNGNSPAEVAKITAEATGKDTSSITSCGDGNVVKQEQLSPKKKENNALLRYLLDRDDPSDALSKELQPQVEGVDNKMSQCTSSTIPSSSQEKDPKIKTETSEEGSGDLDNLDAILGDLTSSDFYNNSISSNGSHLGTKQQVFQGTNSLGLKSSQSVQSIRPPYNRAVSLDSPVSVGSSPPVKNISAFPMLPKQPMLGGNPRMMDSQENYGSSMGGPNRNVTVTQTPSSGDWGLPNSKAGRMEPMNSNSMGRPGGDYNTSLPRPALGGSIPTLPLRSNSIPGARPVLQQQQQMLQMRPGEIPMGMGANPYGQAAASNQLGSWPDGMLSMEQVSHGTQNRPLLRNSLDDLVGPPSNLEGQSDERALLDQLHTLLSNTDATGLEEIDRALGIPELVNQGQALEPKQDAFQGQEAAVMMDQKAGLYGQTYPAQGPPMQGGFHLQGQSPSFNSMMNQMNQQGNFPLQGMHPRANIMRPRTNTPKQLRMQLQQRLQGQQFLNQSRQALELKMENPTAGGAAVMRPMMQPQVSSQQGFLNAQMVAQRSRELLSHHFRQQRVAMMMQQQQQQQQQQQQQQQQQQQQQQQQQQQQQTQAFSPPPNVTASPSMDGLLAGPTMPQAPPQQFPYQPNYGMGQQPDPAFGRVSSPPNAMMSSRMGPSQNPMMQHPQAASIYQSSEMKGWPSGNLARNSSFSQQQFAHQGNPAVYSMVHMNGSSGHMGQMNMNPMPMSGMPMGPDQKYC

[6] = biological target: Peroxisome proliferator-activated receptor gamma/Nuclear receptor coactivator 2 (Homo sapiens, UniProt P37231); assay: TR-FRET dose response biochemical High Throughput Screening assay for agonists of the steroid receptor coactivator 2 (SRC-2) recruitment by the peroxisome proliferator-activated receptor gamma (PPAR gamma): non-selective agonists. [Related pubchem assays: 1297, 1032 ]; format: functional
[7] = biological target: Tyrosine-protein phosphatase non-receptor type 5 (Homo sapiens, UniProt P54829); assay: STEP phosphatase inhibitors, confirmation, biochemical, fluorescence intensity, uHTS hits (AID 602372); format: functional; details: read-out: IC50_Mean
Tyrosine-protein phosphatase non-receptor type 5, sequence (P54829 whole entry): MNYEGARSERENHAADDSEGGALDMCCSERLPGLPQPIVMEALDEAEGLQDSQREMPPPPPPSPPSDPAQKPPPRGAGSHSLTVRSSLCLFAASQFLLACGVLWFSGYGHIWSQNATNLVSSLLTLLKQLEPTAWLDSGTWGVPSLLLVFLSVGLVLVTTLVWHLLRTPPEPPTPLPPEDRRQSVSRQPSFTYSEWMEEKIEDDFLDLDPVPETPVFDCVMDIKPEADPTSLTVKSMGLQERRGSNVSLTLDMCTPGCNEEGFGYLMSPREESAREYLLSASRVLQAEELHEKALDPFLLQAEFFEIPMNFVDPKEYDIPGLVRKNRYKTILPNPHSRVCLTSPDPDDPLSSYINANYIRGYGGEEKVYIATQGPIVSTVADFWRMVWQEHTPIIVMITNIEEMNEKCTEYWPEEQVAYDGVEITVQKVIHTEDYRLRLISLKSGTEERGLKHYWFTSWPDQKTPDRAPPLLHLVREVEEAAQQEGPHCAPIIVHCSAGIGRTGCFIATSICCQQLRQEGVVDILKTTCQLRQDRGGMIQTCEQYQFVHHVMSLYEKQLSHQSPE

[8] = biological target: Dual specificity protein phosphatase 3 (Homo sapiens, UniProt P51452); assay: VHR phosphatase inhibition, dose response, selectivity assay for STEP inhibitor project, biochemical (AID 602374); format: functional; details: read-out: IC50_Mean
Dual specificity protein phosphatase 3, sequence (P51452 whole entry): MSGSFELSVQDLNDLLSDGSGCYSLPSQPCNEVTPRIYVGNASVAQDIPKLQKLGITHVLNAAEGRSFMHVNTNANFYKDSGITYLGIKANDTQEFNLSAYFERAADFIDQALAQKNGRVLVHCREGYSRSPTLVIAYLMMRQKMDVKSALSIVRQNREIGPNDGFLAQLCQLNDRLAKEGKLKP

[9] = biological target: Tyrosine-protein phosphatase non-receptor type 11 (Homo sapiens, UniProt Q06124); assay: SHP2 phosphatase inhibition, dose response, selectivity assay for STEP inhibitor project, biochemical (AID 602367); format: functional; details: read-out: IC50_Mean
Tyrosine-protein phosphatase non-receptor type 11, sequence (Q06124 whole entry): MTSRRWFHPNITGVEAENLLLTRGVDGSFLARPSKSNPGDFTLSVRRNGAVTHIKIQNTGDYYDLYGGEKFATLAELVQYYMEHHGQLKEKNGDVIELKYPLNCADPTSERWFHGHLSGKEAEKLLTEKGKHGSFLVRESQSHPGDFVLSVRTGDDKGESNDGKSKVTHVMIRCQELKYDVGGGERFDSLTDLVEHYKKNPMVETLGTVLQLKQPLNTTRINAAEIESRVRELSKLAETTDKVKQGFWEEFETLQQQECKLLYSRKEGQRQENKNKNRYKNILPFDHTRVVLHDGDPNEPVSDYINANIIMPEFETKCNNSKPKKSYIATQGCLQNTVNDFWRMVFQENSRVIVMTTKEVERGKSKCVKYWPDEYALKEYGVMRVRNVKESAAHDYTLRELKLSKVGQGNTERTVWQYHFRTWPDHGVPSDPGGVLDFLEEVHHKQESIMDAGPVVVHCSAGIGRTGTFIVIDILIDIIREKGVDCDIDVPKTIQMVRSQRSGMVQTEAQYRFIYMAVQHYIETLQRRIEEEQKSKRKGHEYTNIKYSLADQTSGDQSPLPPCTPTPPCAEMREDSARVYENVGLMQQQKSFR

[10] = biological target: T5, Polyadenylate-binding protein 1 (Homo sapiens, UniProt P11940); assay: PABP1 MLLE–PAM2 interaction inhibitors, dose response, miRNA deadenylation inhibitor project, biochemical, fluorescence polarization, Cy5-PAM2 peptide, secondary (AID 602260); format: functional; details: read-out: IC50_Mean
T5 sequence (P11940 whole entry): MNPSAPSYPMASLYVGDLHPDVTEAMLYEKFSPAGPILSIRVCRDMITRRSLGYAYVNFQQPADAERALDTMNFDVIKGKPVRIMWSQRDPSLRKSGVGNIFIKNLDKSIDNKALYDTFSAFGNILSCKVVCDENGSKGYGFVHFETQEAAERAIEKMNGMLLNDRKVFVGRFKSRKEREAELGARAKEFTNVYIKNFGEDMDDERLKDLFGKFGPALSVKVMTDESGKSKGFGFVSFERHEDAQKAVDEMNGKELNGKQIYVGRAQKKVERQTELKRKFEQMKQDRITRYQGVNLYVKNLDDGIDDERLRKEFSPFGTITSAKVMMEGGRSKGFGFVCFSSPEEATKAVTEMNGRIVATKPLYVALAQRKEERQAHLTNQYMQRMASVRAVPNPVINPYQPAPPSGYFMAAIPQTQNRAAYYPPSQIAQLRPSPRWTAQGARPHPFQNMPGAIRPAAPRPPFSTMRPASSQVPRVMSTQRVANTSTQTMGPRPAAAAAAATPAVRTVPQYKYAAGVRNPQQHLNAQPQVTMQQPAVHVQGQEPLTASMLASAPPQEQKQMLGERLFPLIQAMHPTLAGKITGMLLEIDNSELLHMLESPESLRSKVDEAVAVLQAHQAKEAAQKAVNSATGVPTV

[11] = biological target: T5, Polyadenylate-binding protein 1; assay: PABP1 MLLE–PAM2 binding inhibitor potency, dose response, biochemical, fluorescence polarization, FITC-PAM2 peptide (AID 602259); format: functional; details: read-out: IC50_Mean
SUMO-activating enzyme = SUMO-activating enzyme (Homo sapiens, UniProt Q9UBT2); assay: SUMOylation inhibitor hit validation, confirmation, SUMOylation inhibitor project, biochemical, AlphaScreen (AID 2018); format: functional
SUMO-activating enzyme, sequence (Q9UBE0 whole entry): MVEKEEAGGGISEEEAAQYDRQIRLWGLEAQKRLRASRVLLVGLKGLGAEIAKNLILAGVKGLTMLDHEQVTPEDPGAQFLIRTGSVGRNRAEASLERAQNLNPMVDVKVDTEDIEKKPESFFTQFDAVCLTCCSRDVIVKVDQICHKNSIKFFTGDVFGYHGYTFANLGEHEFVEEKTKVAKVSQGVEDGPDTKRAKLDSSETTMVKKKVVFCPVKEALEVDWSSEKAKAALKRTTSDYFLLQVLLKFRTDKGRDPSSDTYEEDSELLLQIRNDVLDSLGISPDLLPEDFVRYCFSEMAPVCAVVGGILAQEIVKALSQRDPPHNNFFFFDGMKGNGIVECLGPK
SUMO-activating enzyme, sequence (Q9UBT2 whole entry): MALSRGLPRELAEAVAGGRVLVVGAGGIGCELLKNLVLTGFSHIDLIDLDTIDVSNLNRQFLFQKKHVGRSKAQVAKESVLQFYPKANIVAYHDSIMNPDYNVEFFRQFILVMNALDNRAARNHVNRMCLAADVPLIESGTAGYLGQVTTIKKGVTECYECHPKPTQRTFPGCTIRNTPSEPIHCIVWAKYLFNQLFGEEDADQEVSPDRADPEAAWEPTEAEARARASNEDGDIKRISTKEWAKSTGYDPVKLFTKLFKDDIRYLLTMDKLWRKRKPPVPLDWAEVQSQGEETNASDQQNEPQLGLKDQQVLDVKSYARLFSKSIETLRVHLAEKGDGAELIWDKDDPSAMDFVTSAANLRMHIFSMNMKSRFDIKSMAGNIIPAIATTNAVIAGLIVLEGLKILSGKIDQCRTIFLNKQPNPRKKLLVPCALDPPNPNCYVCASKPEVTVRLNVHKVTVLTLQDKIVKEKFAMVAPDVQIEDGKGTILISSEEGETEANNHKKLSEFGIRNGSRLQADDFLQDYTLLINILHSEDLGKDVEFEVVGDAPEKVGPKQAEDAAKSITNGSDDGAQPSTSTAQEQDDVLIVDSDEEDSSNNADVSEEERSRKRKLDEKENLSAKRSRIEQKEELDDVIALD

Streptokinase A = biological target: T6, Streptokinase A (Streptococcus pyogenes serotype M1, UniProt P10520); assay: S. pyogenes streptokinase expression inhibitors, potency, dose response, plasminogen activation absorbance, OD405 (AID 1914); format: functional, Streptococcus pyogenes M1 GAS;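 further: secreted streptokinase activity via plasminogen activation per viability signal from cell pellet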
T6 sequence (P10520 whole entry): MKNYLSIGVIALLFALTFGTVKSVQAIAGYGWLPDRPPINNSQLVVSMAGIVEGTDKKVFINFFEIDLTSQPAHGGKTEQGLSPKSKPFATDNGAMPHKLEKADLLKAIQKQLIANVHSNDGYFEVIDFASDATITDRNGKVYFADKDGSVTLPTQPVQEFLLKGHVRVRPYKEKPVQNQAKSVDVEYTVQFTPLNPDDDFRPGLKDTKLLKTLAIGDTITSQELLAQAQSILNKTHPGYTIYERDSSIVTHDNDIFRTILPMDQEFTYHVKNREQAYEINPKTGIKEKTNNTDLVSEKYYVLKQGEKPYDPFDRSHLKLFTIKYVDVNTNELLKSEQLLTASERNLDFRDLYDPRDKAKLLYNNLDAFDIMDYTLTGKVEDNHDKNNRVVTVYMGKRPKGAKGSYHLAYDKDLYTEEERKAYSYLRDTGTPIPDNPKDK

[12] = system: Streptococcus sp. 'group A'; assay: growth inhibition of control SK(-) GAS strain, dose response, counter-screen for streptokinase expression inhibitor project, luminescence, kanamycin, BacTiterGlo, confirmation (AID 1900); format: functional, organism-based
Streptococcus = assay: Group A Streptococcus viability loss, dose response, counter-screen for streptokinase expression inhibitor project, luminescence, BacTiterGlo (AID 1915); format: functional, organism-based;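 further: potency for reduction of bacterial viability or growth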
Protein Wnt-3a = Protein Wnt-3a (Mus musculus, UniProt P27467); assay: Wnt3a-driven reporter signaling inhibition, dose response, selectivity assay for Gli-SUFU antagonist project, Wnt-LIGHT cells, luminescence (AID 651570); format: functional; details: read-out: IC50_Mean;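 further: Wnt-LIGHT reporter cells stimulated with conditioned medium from Wnt3a-producing cells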
Protein skinhead-1 = biological target: T7, Protein skinhead-1 (Caenorhabditis elegans, UniProt P34707); format: functional
T7 sequence (P34707 whole entry): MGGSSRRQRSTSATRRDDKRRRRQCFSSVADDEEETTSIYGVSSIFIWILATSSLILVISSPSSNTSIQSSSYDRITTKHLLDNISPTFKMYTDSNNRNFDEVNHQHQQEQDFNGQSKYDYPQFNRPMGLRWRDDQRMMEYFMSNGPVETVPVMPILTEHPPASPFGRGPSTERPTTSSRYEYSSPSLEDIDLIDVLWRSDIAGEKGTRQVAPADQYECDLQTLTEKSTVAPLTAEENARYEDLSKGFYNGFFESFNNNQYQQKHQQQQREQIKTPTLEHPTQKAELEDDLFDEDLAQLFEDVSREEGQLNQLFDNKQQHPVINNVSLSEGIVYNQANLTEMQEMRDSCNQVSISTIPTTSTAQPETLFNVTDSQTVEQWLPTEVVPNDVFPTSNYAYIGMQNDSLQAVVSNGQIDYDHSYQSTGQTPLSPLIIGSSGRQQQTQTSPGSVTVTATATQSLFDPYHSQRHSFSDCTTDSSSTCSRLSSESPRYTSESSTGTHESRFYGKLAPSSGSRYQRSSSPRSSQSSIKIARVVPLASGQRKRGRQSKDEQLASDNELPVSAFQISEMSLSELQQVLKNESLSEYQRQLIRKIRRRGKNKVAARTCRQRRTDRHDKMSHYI

## O=C(O)c1cccc(NC(=O)c2ccc(COc3ccc(Cl)cc3)cc2)c1
[1]
  IC50: 21.8 µM (active)
[2]
  IC50: 16.7 µM (active)
Caspase-3
  IC50: > 100 µM (inactive)
[3]
  IC50: 41 µM (active)

## CCOc1ccc(S(=O)(=O)N(C)c2ccc(OCC(=O)Nc3nc(-c4cc(OC)ccc4OC)cs3)cc2)cc1
[4]
  EC50: 36.5 µM (inactive)
[5]
  EC50: > 79.4 µM (not active)
[6]
  EC50: 34.8 µM (not active)

## S=C(NCCCN1CCOCC1)Nc1ccc(-c2nc3ccccc3[nH]2)cc1
[7]
  IC50: 56.7 µM (inactive)
[8]
  IC50: 3.03 µM (active)
[9]
  IC50: 3.45 µM (active)

## CCOC(S)=NC(=NS(C)(=O)=O)c1ccccc1
[10]
  IC50: > 66 µM (inactive)
[11]
  IC50: > 66 µM (inactive)

## CC(=O)Nc1ccc(S(=O)(=O)Nc2nc3ccccc3nc2Nc2ccc3ccccc3c2)cc1
SUMO-activating enzyme
  IC50: > 100 µM (inactive)

## Cc1n[nH]c(Nc2ccc(C(C)C)cc2)c1[N+](=O)[O-]
[1]
  IC50: 9.42 µM (active)
[2]
  IC50: 10.1 µM (active)
Caspase-3
  IC50: 36 µM (active)
Streptokinase A
  EC50: 22.3 µM (active)
[12]
  EC50: 30.9 µM (active)
Streptococcus
  EC50: > 150 µM (not active)
[3]
  IC50: > 100 µM (inactive)

## CCOc1ccc(NS(=O)(=O)c2cccc(C(=O)N3CCN(C/C=C/c4ccccc4)CC3)c2)cc1
Protein Wnt-3a
  IC50: 22.7 µM (inactive)

## O=c1c2ccccc2oc2ccc(-c3ccc4[nH]ccc4c3)cc12
Protein skinhead-1
  IC50: 4.77 µM (active)
[1]
  IC50: 6.1 µM (active)
[2]
  IC50: 33.7 µM (active)
Caspase-3
  IC50: 75.1 µM (active)
[3]
  IC50: > 100 µM (inactive)

## C=CCNC(=S)N/N=C(\C)c1cccc(OC)c1
[10]
  IC50: > 66 µM (inactive)
[11]
  IC50: > 66 µM (inactive)

Source: ChEMBL document CHEMBL1201862, “PubChem BioAssay data set” (2004)
